Each structure is given as a SMILES string. Marks after values point to notes of the source that are not given here.

Broadly, the Cmax is the maximum level reached in the sampled fluid or tissue. In general, bioavailability refers to dose-corrected exposure relative to a reference, in per cent. A word on the AUC(0-t): it is exposure summed from dosing to a finite time, without extrapolation to infinity.

Data set [1] deals with CTG-0159 primary NSCLC human TumorGraft. Description: NSCLC TumorGraft model CTG-0159. It counts as in vivo, mice. Conditions: CTG-0159, 14 days. The protocol:
Methods (for the experiments shown in FIGS. 10 and 11) • Female immunocompromised nu/nu mice (Harlan) between 6-9 weeks of age were housed on irradiated papertwist-enriched ⅛″ corncob bedding (Sheperd) in individual HEPA ventilated cages (Innocage® IVC, Innovive USA) on a 12-hour light-dark cycle at 68-74° F. (20-23° C.) and 30-70% humidity. Animals were fed water ad libitum (reverse osmosis, 2 ppm Cl2) and an irradiated Test rodent diet (Teklad 2919) consisting of 19% protein, 9% fat, and 4% fiber. • Tumor Models: Champions TumorGraft models of NSCLC are owned by Champions Oncology. In this study, animals were implanted unilaterally on the right flank with tumor fragments harvested from host animals. […] Erlotinib (manufacturer: OSI Pharmaceuticals; National Drug Code: 50242-062-01; Lot #: US0002) was formulated using 100% PEG-400 as the vehicle according to manufacturer's specifications.
Efficacy measurements: Beginning Day 0, tumor dimensions were measured twice weekly by digital caliper (Fowler Ultra-Cal IV) and data including individual and mean estimated tumor volumes (Mean TV±SEM) were recorded for each group; tumor volume was calculated using the formula TV=width^2×length×0.52. At study completion, percent tumor growth inhibition (% TGI) values were calculated and reported for each treatment group (T) versus control (C) using initial (i) and final (f) tumor measurements by the formula: % TGI=1−Tf−Ti/Cf−C; single agent or combination therapies resulting in a TGI>50 at study completion are considered active in the tested model at the evaluated treatment regimen according to NCI guidelines. […] If the PR persisted until study completion, percent tumor regression (% TR) was determined using the formula: % TR=1−Tf/Ti×100; a mean value was calculated if multiple PR mice occurred in one group. […] Statistical differences in tumor volume were determined using a two-tailed One-Way Analysis of Variance (ANOVA) followed by the Dunett's multiple comparisons test comparing treated groups with control and combinations with standard agent alone when possible. […]

A short description of a further data set: PK in monkey. The note with it: in vivo.
Data set [2] relates to MDA-MB-231-Leu orthotopic breast tumor xenografts. Description: Metastases of MDA-MB-231-Leu orthotopic breast tumor xenografts. The note with it: oral administration, 10 and 30 mg/kg qd. The data set is classed as in vivo, mice. The protocol: The human breast cancer cell line MDA-MB-231-Leu-D3H2LN-luciferase expressing cell line was purchased from Caliper Life Sciences. This tumor cell line was generated by stable transfection of the firefly luciferase gene expressed from the SV40 promoter and further selected for its metastatic potential upon isolation from a spontaneous lymph node metastasis of MDA-MB-231-Luc cells in immune-compromised mice. The cells were grown in DMEM medium supplemented with 10% fetal bovine serum (FBS, Cat^# SH3007003, Hyclone, Logan, Utah). D-Luciferin firefly/potassium salt (Cat. # L-8220) was purchased from Biosynth International, Inc., Itasca, Ill.). Female nu/nu mice (6 to 8 weeks old) were purchased from Harlan Laboratories. […] Mouse body weights were measured on day 0 and then every 7 days, and bioluminescence image analysis performed at the end of the study using the Caliper Life Sciences (Xenogen) Spectrum imager as detailed in FIG. 6. Images of the primary tumor and potential metastatic tumors in lymph nodes were taken weekly, starting on day 7 post cell implantation. Prior to image acquisition, each mouse were give a 0.2 ml intra-peritoneal injection of D-Luciferin firefly/potassium salt and images were acquired 6-10 minutes post substrate administration. […] Counts were converted to average radiance or mean photon flux; expressed as photons per second (p/s). […]

A further data set in a line: PK in dog. Conditions: in vivo.
For data set [3], the system named is 4T1-Luc2 murine mammary carcinoma cells. Kind of data set: 4T1-Luc2 systemic dissemination. It counts as in vivo, mice. The protocol:
The murine breast cancer cell line 4T1-luciferase tagged cell line generated by stable transfection of the firefly luciferase gene expressed from the SV40 promoter was purchased from Caliper Life Sciences. The cells were grown in DMEM medium supplemented with 10% fetal bovine serum (FBS, Cat^# SH3007003, Hyclone, Logan, Utah). D-Luciferin firefly/potassium salt (Cat. # L-8220) was purchased from Biosynth International, Inc., Itasca, Ill.). Female Balb-c mice (6-8 weeks) were purchased from Charles River laboratories. […] Two days later, the mouse body weights were measured twice a week and the mice were subjected for full body in vivo imaging thrice a week. Treatments were given for a total of 23 days, with 21 days post tumor cell seeding. Bioluminescence image analysis was performed at the end of the study using a Caliper Life Sciences (Xenogen) Spectrum in vivo imaging machine. Each cage of five mice was anesthetized using isofluorane and imaged for a series of time points from 0.5-5 minutes max. Image analysis was performed using Living Image Software (vs. 4.0, 2010) using subjective but equally sized gates or regions of interest (ROIs) overlaid on each animal image. Counts were converted to average radiance or mean photon flux; expressed as photons per second per cm2 of surface area, (p/s/cm2/sr). […]

Where [4] appears, read: intravenous, 0.5 mg/kg i.v. and p.o.
[5] abbreviates: iv, 0.5 mg/kg i.v., read-out: t1/2 i.v. (converted).

For the compound `COc1cc2nccc(Oc3ccc(NC(=O)c4cn(C(C)C)c(=O)n(-c5ccc(F)cc5)c4=O)cc3F)c2cc1OC` [CEP-40783, 3-(4-Fluorophenyl)-1-isopropyl-2,4-dioxo-1,2,3,4-tetrahydropyrimidine-5-carboxylic acid [4-(6,7-dimethoxyquinolin-4-yloxy)-3-fluorophenyl]-amide], the entries for the “% Tumor Growth Inhibition” value in data set [1] (10 mg/kg po/qd) and in data set [1] (30 mg/kg po/qd) were 46%* and 66%*†, respectively. In addition, the Cmax in “PK in monkey” (0.5 mg/kg i.v. and p.o.) was determined as 260 ng/mL; in “PK in dog” (0.5 mg/kg i.v. and p.o.), 1170 ng/mL. Besides, the results for the Vd in the data set “PK in monkey” (setting [4]) and in “PK in dog” (setting [4]) were 1.2 L/kg and 1.3 L/kg, respectively. For the same compound, the figures for the clearance in the data set “PK in monkey” (setting [4]) and in “PK in dog” (setting [4]) were 2.2 mL/min/kg and 0.5 mL/min/kg, respectively. For the same compound, the half-life is 14.5 h in the data set “PK in monkey” (setting [5]) and 27.6 h in “PK in dog” (setting [5]). Moreover, the bioavailability in the data set “PK in monkey” (oral, 0.5 mg/kg i.v. and p.o.) stood at 77%; in the data set “PK in dog” (oral, 0.5 mg/kg i.v. and p.o.), 100%. The AUC(0-t) in the data set “PK in monkey” (po, 0.5 mg/kg p.o.) is 3030 ng·h/mL; in “PK in dog” (po, 0.5 mg/kg p.o.) it was 14400 ng·h/mL. The “spontaneous lymph node and pulmonary metastatic tumor burden” value in data set [2] is “efficacious in reducing spontaneous lymph node and pulmonary metastatic tumor burden”. Also, the “systemic 4T1 mammary tumor dissemination” value is listed as “significant, albeit of lesser magnitude, reduction” in data set [3] (1 mg/kg po qd); “highly significant reductions” in data set [3] (10 mg/kg and 30 mg/kg po qd).
